Assay results reported in PMC9229919, “4-Aminoquinoline-Based Adamantanes as Potential Anticholinesterase Agents in Symptomatic Treatment of Alzheimer’s Disease” (Pharmaceutics, 2022).
Read-outs that look alike come from different tables or passages of the source.

How the values were obtained:
[1] = standard compounds of the interpolation method; cited from earlier work
[2] = Ferric reducing antioxidant power (FRAP) assay; settings: mean ± standard error of three experiments;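 further: expressed as µM Fe2+ equivalents from an FeSO4·7H2O standard curve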
Summary of the method: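 Ferric-TPTZ reduction measured by absorbance at 593 nm after 60 min at 37 °C in pH 3.6 acetate-buffered TPTZ/FeCl3 reagent, with test compounds at 10 and 100 µM. FRAP values calculated from an Fe2SO4·7H2O standard curve. Data from three independent experiments.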

recombinant human AChE = target: T1, recombinant human AChE (Homo sapiens, UniProt P22303); experiment: biochemical; type: biochemical; settings: for IS: IS = Ki(BChE)/Ki(AChE), IS > 1 selective to AChE
T1 construct: gift of Dr Florian Nachon (Armed Forces Biomedical Research Institute, Brétigny-sur-Orge, France)
Summary of the method: (§1)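 Modified Ellman assay with acetylthiocholine and DTNB in 0.1 M sodium phosphate pH 7.4 (enzymes diluted with 0.1% BSA), ≤0.2% DMSO, 25 °C. At least three inhibitor concentrations per substrate level; Ki,app from Hunter–Downs equation, Ki from y-intercept and inhibition type from Ki,app vs [S].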

purified human BChE = target: T2, purified human BChE (Homo sapiens, UniProt P06276); experiment: biochemical; type: biochemical
T2 construct: possibly also a gift of Dr Florian Nachon (the sentence is ambiguous)
Summary of the method: as §1

[3] = Reverse-phase thin-layer chromatographic lipophilicity (RF, RM0); type: physicochemical; settings: for RM0: intercept of RM = RM0 + bC; for b: slope of RM = RM0 + bC; for RF, Methanol/Water/Hydrochloric acid (conc.), mobile phase I / RF, Dioxane/Water/Hydrochloric acid (conc.), mobile phase II / RF, Methanol/Water/Hydrochloric acid (conc.), mobile phase II / RF, Acetone/Water/Hydrochloric acid (conc.), mobile phase III / RF, Dioxane/Water/Hydrochloric acid (conc.), mobile phase III / RF, Methanol/Water/Hydrochloric acid (conc.), mobile phase III / RF, Dioxane/Water/Hydrochloric acid (conc.), mobile phase IV / RF, Acetone/Water/Hydrochloric acid (conc.), mobile phase IV / RF, Methanol/Water/Hydrochloric acid (conc.), mobile phase IV / RF, Acetone/Water/Hydrochloric acid (conc.), mobile phase IX / RF, Methanol/Water/Hydrochloric acid (conc.), mobile phase IX / RF, Dioxane/Water/Hydrochloric acid (conc.), mobile phase V / RF, Acetone/Water/Hydrochloric acid (conc.), mobile phase V / RF, Methanol/Water/Hydrochloric acid (conc.), mobile phase V / RF, Dioxane/Water/Hydrochloric acid (conc.), mobile phase VI / RF, Acetone/Water/Hydrochloric acid (conc.), mobile phase VI / RF, Methanol/Water/Hydrochloric acid (conc.), mobile phase VI / RF, Acetone/Water/Hydrochloric acid (conc.), mobile phase VII / RF, Methanol/Water/Hydrochloric acid (conc.), mobile phase VII / RF, Acetone/Water/Hydrochloric acid (conc.), mobile phase VIII / RF, Methanol/Water/Hydrochloric acid (conc.), mobile phase VIII: RP-18 silica; for RF, Methanol/Water/Hydrochloric acid (conc.), mobile phase I: I = 90%MeOH/5%H2O/5%HCl; for RF, Dioxane/Water/Hydrochloric acid (conc.), mobile phase II: II = 80%Dioxane/15%H2O/5%HCl; for RF, Methanol/Water/Hydrochloric acid (conc.), mobile phase II: II = 85%MeOH/10%H2O/5%HCl; for RF, Acetone/Water/Hydrochloric acid (conc.), mobile phase III: III = 70%AC/25%H2O/5%HCl; for RF, Dioxane/Water/Hydrochloric acid (conc.), mobile phase III: III = 70%Dioxane/25%H2O/5%HCl; for RF, Methanol/Water/Hydrochloric acid (conc.), mobile phase III: III = 80%MeOH/15%H2O/5%HCl; for RF, Dioxane/Water/Hydrochloric acid (conc.), mobile phase IV: IV = 60%Dioxane/35%H2O/5%HCl; for RF, Acetone/Water/Hydrochloric acid (conc.), mobile phase IV: IV = 65%AC/30%H2O/5%HCl; for RF, Methanol/Water/Hydrochloric acid (conc.), mobile phase IV: IV = 75%MeOH/20%H2O/5%HCl; for RF, Acetone/Water/Hydrochloric acid (conc.), mobile phase IX: IX = 40%AC/55%H2O/5%HCl; for RF, Methanol/Water/Hydrochloric acid (conc.), mobile phase IX: IX = 50%MeOH/45%H2O/5%HCl; for RF, Dioxane/Water/Hydrochloric acid (conc.), mobile phase V: V = 50%Dioxane/45%H2O/5%HCl; for RF, Acetone/Water/Hydrochloric acid (conc.), mobile phase V: V = 60%AC/35%H2O/5%HCl; for RF, Methanol/Water/Hydrochloric acid (conc.), mobile phase V: V = 70%MeOH/25%H2O/5%HCl; for RF, Dioxane/Water/Hydrochloric acid (conc.), mobile phase VI: VI = 40%Dioxane/55%H2O/5%HCl; for RF, Acetone/Water/Hydrochloric acid (conc.), mobile phase VI: VI = 55%AC/40%H2O/5%HCl; for RF, Methanol/Water/Hydrochloric acid (conc.), mobile phase VI: VI = 65%MeOH/30%H2O/5%HCl; for RF, Acetone/Water/Hydrochloric acid (conc.), mobile phase VII: VII = 50%AC/45%H2O/5%HCl; for RF, Methanol/Water/Hydrochloric acid (conc.), mobile phase VII: VII = 60%MeOH/35%H2O/5%HCl; for RF, Acetone/Water/Hydrochloric acid (conc.), mobile phase VIII: VIII = 45%AC/50%H2O/5%HCl; for RF, Methanol/Water/Hydrochloric acid (conc.), mobile phase VIII: VIII = 55%MeOH/40%H2O/5%HCl
Summary of the method: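 Lipophilicity from RP-TLC retention at 22±2 °C over a 4.5 cm development distance. Eluents: organic modifier (methanol, acetone or dioxane), water and hydrochloric acid, methanol stepped by 10%. RM0 obtained from RF.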

[4] = log (Ki/µM AChE), read-out: Y Measured 1 log(ki)Ache (converted)
[5] = ± standard error, 25 °C, ATCh substrate, read-out: Ki AChE
[6] = logarithm of Ki in µM, BChE, dependent variable of the QSAR model, read-out: Y Measured 2 log(ki)Bche, log (Ki/µM BChE) (converted)
[7] = ± standard error, 25 °C, ATCh substrate, read-out: Ki BChE
[8] = Acetone/Water/Hydrochloric acid (conc.)
[9] = Dioxane/Water/Hydrochloric acid (conc.)
[10] = Methanol/Water/Hydrochloric acid (conc.)

T2 sequence (P06276 29-602): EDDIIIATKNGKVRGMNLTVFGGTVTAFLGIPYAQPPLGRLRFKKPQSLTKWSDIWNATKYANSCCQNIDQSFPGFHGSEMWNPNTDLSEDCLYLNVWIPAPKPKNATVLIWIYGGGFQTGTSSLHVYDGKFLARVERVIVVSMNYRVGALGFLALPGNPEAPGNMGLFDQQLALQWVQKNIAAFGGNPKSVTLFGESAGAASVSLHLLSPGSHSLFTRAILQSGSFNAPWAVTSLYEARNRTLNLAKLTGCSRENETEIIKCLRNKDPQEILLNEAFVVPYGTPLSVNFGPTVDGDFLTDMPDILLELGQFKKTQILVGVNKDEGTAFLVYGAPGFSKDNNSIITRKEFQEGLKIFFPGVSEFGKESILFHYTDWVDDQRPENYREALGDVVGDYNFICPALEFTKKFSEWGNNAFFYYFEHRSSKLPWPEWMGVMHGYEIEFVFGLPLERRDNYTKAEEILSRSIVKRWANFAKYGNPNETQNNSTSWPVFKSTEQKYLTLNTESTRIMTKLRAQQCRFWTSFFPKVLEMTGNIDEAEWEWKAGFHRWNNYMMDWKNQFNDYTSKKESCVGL
T1 sequence (P22303 32-614): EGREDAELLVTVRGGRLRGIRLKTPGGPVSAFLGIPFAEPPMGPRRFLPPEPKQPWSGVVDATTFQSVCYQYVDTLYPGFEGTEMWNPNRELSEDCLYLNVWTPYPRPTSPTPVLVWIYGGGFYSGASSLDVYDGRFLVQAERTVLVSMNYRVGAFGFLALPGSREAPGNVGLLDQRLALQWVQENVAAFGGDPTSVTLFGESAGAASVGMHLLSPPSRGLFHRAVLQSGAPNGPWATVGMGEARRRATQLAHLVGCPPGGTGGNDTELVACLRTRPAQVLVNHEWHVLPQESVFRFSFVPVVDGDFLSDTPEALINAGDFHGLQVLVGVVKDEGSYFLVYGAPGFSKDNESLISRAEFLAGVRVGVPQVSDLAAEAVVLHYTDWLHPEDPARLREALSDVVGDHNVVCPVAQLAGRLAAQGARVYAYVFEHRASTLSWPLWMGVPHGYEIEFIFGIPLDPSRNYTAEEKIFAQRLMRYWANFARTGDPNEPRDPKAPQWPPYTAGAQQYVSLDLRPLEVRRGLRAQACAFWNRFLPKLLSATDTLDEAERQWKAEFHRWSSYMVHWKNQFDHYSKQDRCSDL

Compound	pKa1 [1]	FRAP ([2]; 10 µM compound) [µM]	FRAP ([2]; 100 µM compound) [µM]	IS (recombinant human AChE)	Ki (recombinant human AChE; [4]) [µM]	Ki (recombinant human AChE; [5]) [µM]	Ki (purified human BChE; [6]) [µM]	Ki (purified human BChE; [7]) [µM]	RM0 [3, 8]	b [3, 8]	RM0 [3, 9]	b [3, 9]	RM0 [3, 10]	b [3, 10]	RF, Methanol/Water/Hydrochloric acid (conc.), mobile phase I [3]	RF, Dioxane/Water/Hydrochloric acid (conc.), mobile phase II [3]	RF, Methanol/Water/Hydrochloric acid (conc.), mobile phase II [3]	RF, Acetone/Water/Hydrochloric acid (conc.), mobile phase III [3]	RF, Dioxane/Water/Hydrochloric acid (conc.), mobile phase III [3]	logP [1]	also measured
Oc1ccc(Cl)cc1Cl [2,4-dihlorfenol]	7.89																				
Oc1cccc2ccccc12 [Compound 1-naftol]	9.34																				
Clc1ccc2c(N3CCN(CCC45CC6CC(CC(C6)C4)C5)CC3)ccnc2c1 [Compound 21]		6.0 ± 2.0	15 ± 5	2.7	2.1	2.1 ± 0.4	5.6	5.6 ± 0.6	1.611	2.562	0.7539	1.607	2.219	2.906	0.68	0.73	0.65	0.59	0.71		RF, Methanol/Water/Hydrochloric acid (conc.), mobile phase III [3]: 0.51; RF, Dioxane/Water/Hydrochloric acid (conc.), mobile phase IV [3]: 0.71; RF, Acetone/Water/Hydrochloric acid (conc.), mobile phase IV [3]: 0.53; RF, Methanol/Water/Hydrochloric acid (conc.), mobile phase IV [3]: 0.51; RF, Acetone/Water/Hydrochloric acid (conc.), mobile phase IX [3]: 0.17; RF, Methanol/Water/Hydrochloric acid (conc.), mobile phase IX [3]: 0.12; RF, Dioxane/Water/Hydrochloric acid (conc.), mobile phase V [3]: 0.52; RF, Acetone/Water/Hydrochloric acid (conc.), mobile phase V [3]: 0.44; RF, Methanol/Water/Hydrochloric acid (conc.), mobile phase V [3]: 0.45; RF, Dioxane/Water/Hydrochloric acid (conc.), mobile phase VI [3]: 0.39; RF, Acetone/Water/Hydrochloric acid (conc.), mobile phase VI [3]: 0.4; RF, Methanol/Water/Hydrochloric acid (conc.), mobile phase VI [3]: 0.36; RF, Acetone/Water/Hydrochloric acid (conc.), mobile phase VII [3]: 0.35; RF, Methanol/Water/Hydrochloric acid (conc.), mobile phase VII [3]: 0.27; RF, Acetone/Water/Hydrochloric acid (conc.), mobile phase VIII [3]: 0.29; RF, Methanol/Water/Hydrochloric acid (conc.), mobile phase VIII [3]: 0.18
Clc1ccc2c(NCCCN3CCN(CCCNCC45CC6CC(CC(C6)C4)C5)CC3)ccnc2c1 [Compound 22]		11 ± 3	34 ± 8	4.8	0.69	0.69 ± 0.02	3.3	3.3 ± 0.2	1.4989	2.763	0.5478	1.493	1.56	2.199	0.67	0.78	0.7	0.71	0.76		RF, Methanol/Water/Hydrochloric acid (conc.), mobile phase III [3]: 0.6; RF, Dioxane/Water/Hydrochloric acid (conc.), mobile phase IV [3]: 0.78; RF, Acetone/Water/Hydrochloric acid (conc.), mobile phase IV [3]: 0.68; RF, Methanol/Water/Hydrochloric acid (conc.), mobile phase IV [3]: 0.59; RF, Acetone/Water/Hydrochloric acid (conc.), mobile phase IX [3]: 0.28; RF, Methanol/Water/Hydrochloric acid (conc.), mobile phase IX [3]: 0.22; RF, Dioxane/Water/Hydrochloric acid (conc.), mobile phase V [3]: 0.6; RF, Acetone/Water/Hydrochloric acid (conc.), mobile phase V [3]: 0.61; RF, Methanol/Water/Hydrochloric acid (conc.), mobile phase V [3]: 0.5; RF, Dioxane/Water/Hydrochloric acid (conc.), mobile phase VI [3]: 0.48; RF, Acetone/Water/Hydrochloric acid (conc.), mobile phase VI [3]: 0.51; RF, Methanol/Water/Hydrochloric acid (conc.), mobile phase VI [3]: 0.45; RF, Acetone/Water/Hydrochloric acid (conc.), mobile phase VII [3]: 0.43; RF, Methanol/Water/Hydrochloric acid (conc.), mobile phase VII [3]: 0.38; RF, Acetone/Water/Hydrochloric acid (conc.), mobile phase VIII [3]: 0.36; RF, Methanol/Water/Hydrochloric acid (conc.), mobile phase VIII [3]: 0.31
Clc1ccc2c(NCCCN3CCN(CCCNCCC45CC6CC(CC(C6)C4)C5)CC3)ccnc2c1 [Compound 23]		1.4 ± 0.1	20 ± 5	4.1	0.44	0.44 ± 0.09	1.8	1.8 ± 0.2	1.784	2.934	0.7935	1.661	2.211	2.892	0.64	0.73	0.66	0.62	0.71		RF, Methanol/Water/Hydrochloric acid (conc.), mobile phase III [3]: 0.54; RF, Dioxane/Water/Hydrochloric acid (conc.), mobile phase IV [3]: 0.71; RF, Acetone/Water/Hydrochloric acid (conc.), mobile phase IV [3]: 0.58; RF, Methanol/Water/Hydrochloric acid (conc.), mobile phase IV [3]: 0.53; RF, Acetone/Water/Hydrochloric acid (conc.), mobile phase IX [3]: 0.15; RF, Methanol/Water/Hydrochloric acid (conc.), mobile phase IX [3]: 0.12; RF, Dioxane/Water/Hydrochloric acid (conc.), mobile phase V [3]: 0.51; RF, Acetone/Water/Hydrochloric acid (conc.), mobile phase V [3]: 0.48; RF, Methanol/Water/Hydrochloric acid (conc.), mobile phase V [3]: 0.44; RF, Dioxane/Water/Hydrochloric acid (conc.), mobile phase VI [3]: 0.38; RF, Acetone/Water/Hydrochloric acid (conc.), mobile phase VI [3]: 0.42; RF, Methanol/Water/Hydrochloric acid (conc.), mobile phase VI [3]: 0.37; RF, Acetone/Water/Hydrochloric acid (conc.), mobile phase VII [3]: 0.35; RF, Methanol/Water/Hydrochloric acid (conc.), mobile phase VII [3]: 0.25; RF, Acetone/Water/Hydrochloric acid (conc.), mobile phase VIII [3]: 0.31; RF, Methanol/Water/Hydrochloric acid (conc.), mobile phase VIII [3]: 0.18
c1ccc2cc3ccccc3cc2c1 [antracen]																				4.45	
c1ccc2c(c1)ccc1ccccc12 [fenantren]																				4.46	
c1ccc2c(c1)Cc1ccccc1-2 [fluoren]																				4.18	
O=C1CN=C(c2ccccc2Cl)c2cc([N+](=O)[O-])ccc2N1 [klonazepam]	10.5																			2.41	pKa2 [1]: 1.5
